# In patent US11767374B2, “Method and use of Radix puerariae polysaccharide in promoting lipid-lowering activity” (JIANGXI UNIVERSITY OF TRADITIONAL CHINESE MEDICINE, priority 2020, dated 2023):
# System: high-cholesterol hyperlipidemia rats
# Test: In vivo lipid-lowering experiment in high-cholesterol hyperlipidemia rats
# Set-up: species or system Wistar rats
# Conditions: plasma, positive drug 8 mg/kg, half a month
# Source text: 56 male Wistar rats (8 weeks old, body weight: 200 g±20 g) were purchased from Beijing Vital River Laboratory Animal Technology Co., Ltd. All animals were fed with a normal diet adaptively for 1 week.
# The rats were sampled every half month to determine the plasma total triglyceride (TG), total cholesterol (TC), low-density lipoprotein (LDL-C), and high-density lipoprotein (HDL-C) levels. 2 months later, all rats were anesthetized with isoflurane, and then blood samples were collected from the orbital vein using capillary tubes. The blood samples were centrifuged (4° C., 4,000 r×min^−1, and 15 min) to obtain plasma samples, a kit (purchased from Nanjing Jiancheng Biotechnology Co., Ltd., China) was used to make a standard curve, and a chromogenic reaction was conducted according to specified steps to determine the plasma TG, TC, LDL-C, and HDL-C levels, thereby determining whether hyperlipidemia models were successfully constructed.
# The rats were intragastrically administered for half a month. The night before the experiment, the rats were fasted; and on the day of the experiment, the rats were weighed and resulting body weights were recorded. The rats were anesthetized with isoflurane, then blood was collected from the orbit and placed in a heparin sodium centrifuge tube, and blood samples were centrifuged (4° C., 4,000 r×min^−1, and 15 min) to obtain plasma samples. A kit (purchased from Nanjing Jiancheng Biotechnology Co., Ltd., China) was used to make a standard curve, and the plasma TG, TC, LDL-C, and HDL-C levels were determined according to specified steps. The rats were sacrificed through cervical dislocation, and then a liver tissue was collected and weighed. A liver index was calculated according to the following formula: liver index=liver weight (g)/rat weight (g).
# Data analysis: In this experiment, the SPSS11.5 version was used to analyze data (3 repetitions), and analysis of variance (ANOVA) and intergroup Duncan multiple comparison were adopted.
smiles,measurement,value
"CCC(C)(C)C(=O)O[C@H]1C[C@@H](C)C=C2C=C[C@H](C)[C@H](CC[C@@H]3C[C@@H](O)CC(=O)O3)[C@H]21 [Simvastatin, simvastatin]",HDL-C,2.89 ± 0.44 b mmol/L
same,LDL-C,0.51 ± 0.09 b mmol/L
same,TG,0.87 ± 0.27 c mg/mL
